# Tested on: MDA-MB-361 tumor xenografts
# Assay: Tumor growth in HER2-overexpressing MDA-MB-361 breast cancer xenograft model
# Assay type: in vivo, nude mice
# Conditions: 20 μg DNA; paclitaxel 15 mg/kg i.p.; compared with LPD-Luciferase
# Experimental: Female nude mice were inoculated with HER2-overexpressing MDA-MB-361 cells in the mammary fat pad. After the formation of 8-10 tumors per group (5 animals per group, -2 tumors per animal), mice were given one of the following treatments: naked E1A DNA (20 μg DNA, light circles), vehicle only (small squares), LPD-luciferase (20 μg DNA, triangles), LPD-E1A (20 μg DNA, dark circles), paclitaxel (15 mg/kg, light triangles), or LPD-E1A (20 μg DNA) plus paclitaxel (15 mg/kg) (large squares). The tumor growth ratio was determined by comparing the size of the treated tumors with the size of the original tumor before any treatment. The error bars indicate s.e.m.
structure (smiles),measurement,value
CC(=O)O[C@H]1C(=O)[C@@]2(C)[C@H]([C@H](OC(=O)c3ccccc3)[C@]3(O)C[C@H](OC(=O)[C@H](O)[C@@H](NC(=O)c4ccccc4)c4ccccc4)C(C)=C1C3(C)C)[C@]1(OC(C)=O)CO[C@@H]1C[C@@H]2O [paclitaxel],tumor growth,decreased tumor growth

# — US20090233848A1, “Pea15 as a Tumor Suppressor Gene” (priority 2004, published 2009)
